Consider six compounds from patent publication US10508069B2, “Acid/salt separation” (PURAC BIOCHEM B.V., priority 2011, dated 2019).

The nature of series [1]: Dicarboxylic acid remaining in solution while the HCl-acidified magnesium dicarboxylate solution is cooled (precipitation). The series is classed as physicochemical. The protocol:
Magnesium hydroxide was added to a solution of dicarboxylic acid in water and heated up to complete dissolution. Four different carboxylic acids were used: adipic acid, fumaric acid, itaconic acid and 2,5-furandicarboxylic acid. The resulting dicarboxylate solution was meant to resemble a magnesium dicarboxylate solution obtained in a fermentation process. Although a magnesium dicarboxylate solution obtained in a fermentation process generally comprises compounds other than magnesium dicarbooxylate, such as a relatively large amount of impurities, the magnesium dicarboxylate solution prepared for this example was considered to sufficiently resemble a magnesium dicarboxylate solution obtained in a fermentation process to show the proof of principle that the invention works.
A certain amount of an aqueous solution of HCl was added to the magnesium dicarboxylate solution from Example 1, as indicated in Table 2. […] During cooling, samples were taken of the solution for each 10±1 centigrade.
The amount of crystal produced was calculated as difference between the initial dicarboxylic mass and the remaining dicarboxylic mass in solution.

For series [2] the following is noted: water at 20° C.; cited from earlier work.
How the values of series [3] were obtained: The solution was then cooled from 115° C. to 20° C. […] The precipitate was separated from the solution by filtration using a standard gravity filter.
How the values of series [4] were obtained: An amount of 333 g aqueous solution of HCl (37 wt. % wt %) was added to the thus prepared magnesium succinate solution. […] During cooling, samples were taken of the solution and the precipitate of the mixture at 62, 52, 40, 31 and 20° C. The composition of the samples and the total amount of precipitate formed were determined.
The samples were taken only from the solution (for sampling, stirrer was stopped some few seconds, and after crystal settling, a sample was taken from the supernatant).
The source holds these as a separate data set.

[5] abbreviates: 20 ° C., MgCl2 solution, over precipitate.
The mark [6] stands for this setting: 30 ° C., MgCl2 solution, over precipitate.
Setting [7] is: 40 ° C., MgCl2 solution, over precipitate.
[8] abbreviates: 50 ° C., MgCl2 solution, over precipitate.
Setting [9] is: 60 ° C., MgCl2 solution after HCl acidulation, no precipitate yet.

Read-outs that look alike come from different tables or passages of the source.

Take `O=C(O)c1ccc(C(=O)O)o1` [2,5-Furandicarboxylic Acid, 2,5-furandicarboxylic acid]: the “2,5-Furandicarboxylic Acid concentration in the solution” value in series [1] (22 ° C., MgCl2 solution, over precipitate) is 0.06%; in series [1] (32 ° C., MgCl2 solution, over precipitate), 0.14%; in series [1] (42 ° C., MgCl2 solution, over precipitate) it was 0.33%; in series [1] (53 ° C., MgCl2 solution, over precipitate), 0.25%; in series [1] (62 ° C., MgCl2 solution, over precipitate) it was 0.38%; in series [1] (72 ° C., MgCl2 solution, over precipitate), 0.19%. Besides, in series [1] (84 ° C., MgCl2 solution, over precipitate), the “2,5-Furandicarboxylic Acid concentration in the solution” value was 0.52%.
In the case of `O=C(O)CCCCC(=O)O` [Adipic Acid, adipic acid], the “Adipic Acid concentration in the solution” value in series [1] (setting [5]) turned out to be 0.7 wt %; in series [1] (setting [6]), 1.2 wt %; in series [1] (setting [7]), 2 wt %; in series [1] (51 ° C., MgCl2 solution, over precipitate), 3.5 wt %; in series [1] (60 ° C., MgCl2 solution, over precipitate), 6.1 wt %; in series [1] (70 ° C., MgCl2 solution, over precipitate), 11.5 wt %. Also, the “Adipic Acid concentration in the solution” value in series [1] (81 ° C., MgCl2 solution after HCl acidulation, no precipitate yet) was 14.2 wt %.
As to `O=C(O)/C=C/C(=O)O` [Fumaric Acid, fumaric acid], the “Fumaric Acid concentration in the solution” value is given as 0.5 wt % in series [1] (setting [5]); 0.5 wt % in series [1] (setting [6]); 0.7 wt % in series [1] (39 ° C., MgCl2 solution, over precipitate); 1.1 wt % in series [1] (setting [8]); 1.6 wt % in series [1] (setting [9]).
In the case of `C=C(CC(=O)O)C(=O)O` [Itaconic Acid, itaconic acid], the “Itaconic Acid concentration in the solution” value in series [1] (setting [5]) is 2.6 wt %; in series [1] (setting [6]), 4.1 wt %; in series [1] (41 ° C., MgCl2 solution, over precipitate), 6.0 wt %; in series [1] (setting [8]) it was 9.4 wt %; in series [1] (setting [9]), 13.2 wt %.
Consider `[Cl-].[Cl-].[Mg+2]` [MgCl2, magnesium chloride], for which, in series [2], the “saturation point in water” value was 55 g/100 g water.
As for `O=C(O)CCC(=O)O` [Succinic Acid, succinic acid], in series [3] (HPLC, filtrate after cooling from 115° C. to 20° C., 31.7 wt. % magnesium chloride), the “succinic acid present in the filtrate” value is given as 0.22 wt. %. Besides, the “Content succínic, Solution” value in series [3] (solution after cooling to 20° C. and filtration, concentrated to 31.7 wt. % magnesium chloride) is given as 0.22%. The “Succinic Acid concentration in the solution” value in series [4] (setting [5]) amounted to 2.10 wt. %; in series [4] (31 ° C., MgCl2 solution, over precipitate), 3.40 wt. %; in series [4] (setting [7]), 5.00 wt. %; in series [4] (52 ° C., MgCl2 solution, over precipitate), 8.20 wt. %; in series [4] (62 ° C., MgCl2 solution after HCl acidulation, no precipitate yet), 13.13 wt. %.
